Data set [1] relates to Foxo3a mRNA. The data set is described as follows: Foxo3a mRNA by real-time RT-PCR in SKOV3 cells treated with 2-deoxyglucose. The format is cell-based, human. An excerpt: In another embodiment, the subject invention relates to a method for decreasing the fertility of a subject, comprising administering a therapeutically effective amount of a glucose analog to the subject, wherein the glucose analog comprises one or more of (i) 2-deoxyglucose (2DG) or a combination of 2DG with chemical derivatives of 2DG with similarly documented ovarian activity; (ii) D-mannoheptulose; or (iii) 5-thio-D-glucose; and the administering step inhibits ovulation in the female subject. In a further embodiment, the glucose analog elevates the production of FOXO3a. In yet a further embodiment, FOXO3a prevents activation of oocytes during follicle development. In another embodiment, a therapeutically effective amount of at least one glucose analog is co-administered to the subject. In one example, FOXO3a mRNA and protein levels are induced in response to amino acid and glucose_deprivation in human ovarian carcinoma (SKOV3) cells. In order to establish a connection between FOXO3a and glucose deprivation, one example was used in which human ovarian carcinoma (SKOV3) cells were treated with 2-deoxyglucose (2-DOG or 2-DG) followed by mRNA analysis by real-time RT-PCR (FIG. 1) and immunoblot analysis (FIG. 2). 2-DG has been effectively employed as an alternative to glucose (deprivation) depletion. […] The fold increases were determined using a ΔΔCT method with cyclophilin A as the internal reference gene for each sample. […] Control cells (FED/MEM) were given complete media.
Background: Real-time PCR tracks product formation cycle by cycle.

The test system of the next data set is FOXO3a protein. The data set is described as follows: Immunoblot analysis of FOXO3a protein levels in SKOV3 cells. The settings on record: vs FED/MEM control. In kind it is cell-based, human. The text has this:
In another embodiment, the subject invention relates to a method for decreasing the fertility of a subject, comprising administering a therapeutically effective amount of a glucose analog to the subject, wherein the glucose analog comprises one or more of (i) 2-deoxyglucose (2DG) or a combination of 2DG with chemical derivatives of 2DG with similarly documented ovarian activity; (ii) D-mannoheptulose; or (iii) 5-thio-D-glucose; and the administering step inhibits ovulation in the female subject. In a further embodiment, the glucose analog elevates the production of FOXO3a. In yet a further embodiment, FOXO3a prevents activation of oocytes during follicle development. In another embodiment, a therapeutically effective amount of at least one glucose analog is co-administered to the subject. In one example, FOXO3a mRNA and protein levels are induced in response to amino acid and glucose_deprivation in human ovarian carcinoma (SKOV3) cells. In order to establish a connection between FOXO3a and glucose deprivation, one example was used in which human ovarian carcinoma (SKOV3) cells were treated with 2-deoxyglucose (2-DOG or 2-DG) followed by mRNA analysis by real-time RT-PCR (FIG. 1) and immunoblot analysis (FIG. 2). […] The fold increases were determined using a ΔΔCT method with cyclophilin A as the internal reference gene for each sample. […]
On the technique in general: Immunoblotting shows a protein as a band on a membrane.

In another data set the test system is FOXO3a. The data set is described as follows: Mouse ovarian organ culture, FOXO3a mRNA and protein expression. In kind it is cell-based.
Data set [2] has as its system Foxo3a mRNA. As to the kind of experiment: Pilot study in mice injected IP daily for two weeks: ovary Foxo3a mRNA by real-time RT-PCR. In kind it is in vivo. The settings on record: for Foxo3a mRNA levels in ovary, increase: two weeks, 5-week-old mice. The method, then: (§1) Not to be bound to any particular mechanism, it is believed that in one aspect of the present invention, by administering a therapeutically effective amount of the non-hormonal contraceptive composition to a female subject, cellular signals are induced activating a regulatory factor which blocks maturation of the […] and suppresses ovulation. In one example, a pilot study was conducted in which 5-week-old mice were intraperitoneally (IP) injected daily with 2-DG for two weeks. To determine an effective dose, 100, 300 and 600 mg/kg 2-DG was tested, with 6 animals in each treated group and 6 mice in the control group (0) injected with PBS. Following the two week study, the mice were sacrificed and the ovaries removed for mRNA and histological analyses. […] The contralateral ovary was used for histological analysis of the total numbers of follicle types in the entire ovary. Ovaries were fixed in 10% neutral buffered formalin, embedded in paraffin, then serially sectioned at 8 μm and stained with hematoxylin. Follicles were counted in every fifth section with random start. Follicles were classified following Pedersen and Peters guidelines. Most relevant to the data presented here, type 3a and 3b follicles were classified as having a single layer of granulosa cells surrounding the oocyte, and the two were distinguished from each other by the number of granulosa cells in that single layer. […] Only follicles containing an oocyte with a clearly visible nucleus were scored, to ensure that each follicle was counted only once. It should be noted that type 3a follicles are the first stage of folliculogenesis from the primordial follicle, the dormant stage at which FOXO3a acts as a brake. After follicles were counted in each fifth section, the total number of each type was multiplied by a correction factor of five to estimate total number of follicles in each ovary. The collective data is shown in the bar graph in FIG. 5. […] This is particularly advantageous as it allows lower dosages of one of the analogs or dosages of two or more analogs in therapeutic compositions. […]

The next data set has as its system type 3a follicles. As to the kind of experiment: Pilot study in mice injected IP daily for two weeks: histological count of follicle types per ovary. The conditions noted are these: for Reduction in number of type 3a follicles: two weeks, vs PBS controls. In kind it is in vivo. The procedure:
as §1

For data set [3] the following is noted: cited from earlier work.
For data set [4] the following is noted: animal metabolic and nutritional studies, human nutritional and cancer studies/clinical trials; cited from earlier work.
For data set [5] the following is noted: women, cited from earlier work.
Where [6] appears, read: preliminary dose response studies, mice injected for two weeks.

Like-named read-outs stand apart in the source and are kept apart here.

For `O=CC[C@@H](O)[C@H](O)[C@H](O)CO` [2-DG, 2-deoxyglucose], the “Duration of Foxo3a mRNA induction” value in the data set on Foxo3a mRNA [1] (SKOV3 cells) was “maintained out to 24 h”. In addition, the “Foxo3a mRNA induction” value in the data set on Foxo3a mRNA [1] (SKOV3 cells, by 4 h, ΔΔCT vs cyclophilin A) is reported as “approximately 2.5 fold”. Further, the “FOXO3a mRNA and protein expression” value in the data set with Foxo3a mRNA [1] (human ovarian carcinoma cells in culture) and with FOXO3a was “specific induction” throughout. Moreover, the Foxo3a protein levels result with FOXO3a protein is recorded as “increased”. Besides, the figures for the “Foxo3a mRNA levels in ovary, increase” value in the data set with Foxo3a mRNA [2] (100 mg/kg IP daily) and in the data set on Foxo3a mRNA [2] (600 mg/kg IP daily) were around 4 fold and around 2.75 fold, respectively. Further, in the data set with Foxo3a mRNA [2] (setting [6]), the “Increase in mRNA synthesis of FOXO3a in the ovary” value is reported as 2-4 fold. Besides, the “Reduction in number of type 3a follicles” value in the data set with type 3a follicles (100 mg/kg IP daily) is around 60%; in the data set with type 3a follicles (600 mg/kg IP daily), 32%. For the same molecule, in the data set with type 3a follicles (setting [6]), the “Decrease in maturation of primary follicles” value is given as 32-60%. Moreover, the “Solubility in aqueous solutions” value in data set [3] is on record as “freely soluble”. Besides, in data set [4], the Side effects result is reported as “no documented side effects”.

In the case of `N[C@H](CO)Cc1c[nH]cn1` [His-OH, histidinol, reference compound], the Foxo3a protein levels result in the data set with FOXO3a protein is given as “increased”.

In the case of `CC(=O)O[C@]1(C(C)=O)CC[C@H]2[C@@H]3C[C@H](C)C4=CC(=O)CC[C@]4(C)[C@H]3CC[C@@]21C` [depot medroxyprogesterone acetate, medroxyprogesterone acetate], the “Loss in bone mineral density” value in data set [5] (after 24 months of use, average) is 5.7%; in data set [5] (between months 12 and 24), 3.2%.
